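Five compound concentrations were applied to cells in 96-well plates for 48 hours; endpoints were derived by simple linear interpolation of the resulting dose-response curve. GI50: concentration for 50% inhibition of growth.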 Active and inactive are the calls of the source. Rule as the data show it: active = GI50 up to about 1.1 µM and inactive = higher.
Columns and labels:
Assay in all cases: inhibition of tumour cell growth, NCI panel, 48 h
SK-MEL-2 = tested on: SK-MEL-2
DMS-114 = tested on: DMS-114
M19-MEL = tested on: M19-MEL
786-0 = tested on: 786-0
NCI-H226 = tested on: NCI-H226
Malme-3M = tested on: Malme-3M
SNB-78 = tested on: SNB-78
HT-29 = tested on: HT-29
CCRF-CEM = tested on: CCRF-CEM
SNB-19 = tested on: SNB-19
EKVX = tested on: EKVX
OVCAR-4 = tested on: OVCAR-4
SF-539 = tested on: SF-539
DLD-1 = tested on: DLD-1
SK-MEL-5 = tested on: SK-MEL-5
UACC-62 = tested on: UACC-62
LOX IMVI = tested on: LOX IMVI
ACHN = tested on: ACHN
KM-20L2 = tested on: KM-20L2
SK-OV-3 = tested on: SK-OV-3
COLO 205 = tested on: COLO 205
HOP-62 = tested on: HOP-62
SK-MEL-28 = tested on: SK-MEL-28
SN12C = tested on: SN12C
SF-295 = tested on: SF-295
NCI-H23 = tested on: NCI-H23
NCI-H460 = tested on: NCI-H460
HOP-92 = tested on: HOP-92
MOLT-4 = tested on: MOLT-4
UACC-257 = tested on: UACC-257
CAKI-1 = tested on: CAKI-1
RXF 393 = tested on: RXF 393
DMS-273 = tested on: DMS-273
A549 = tested on: A549
SF-268 = tested on: SF-268
U-251 = tested on: U-251
LXFL 529 = tested on: LXFL 529
RPMI-8226 = tested on: RPMI-8226
HCT-116 = tested on: HCT-116
HL-60 = tested on: HL-60
M14 = tested on: M14
SR = tested on: SR
IGROV-1 = tested on: IGROV-1
SW-620 = tested on: SW-620
K562 = tested on: K562
HCC 2998 = tested on: HCC 2998
NCI-H522 = tested on: NCI-H522
SNB-75 = tested on: SNB-75
OVCAR-8 = tested on: OVCAR-8
TK-10 = tested on: TK-10
HCT-15 = tested on: HCT-15
KM12 = tested on: KM12
OVCAR-5 = tested on: OVCAR-5
UO-31 = tested on: UO-31
XF498 = tested on: XF498
OVCAR-3 = tested on: OVCAR-3

NNC(=O)C1CCC(=O)N1S(=O)(=O)c1ccccc1 (stereo unspecified)
GI50 (SK-MEL-2): > 100 µM (inactive)
GI50 (DMS-114): > 100 µM (inactive)
GI50 (M19-MEL): > 100 µM (inactive)
GI50 (786-0): > 100 µM (inactive)
GI50 (NCI-H226): > 100 µM (inactive)
GI50 (Malme-3M): > 100 µM (inactive)
GI50 (SNB-78): > 100 µM (inactive)
GI50 (HT-29): > 100 µM (inactive)
GI50 (CCRF-CEM): > 100 µM (inactive)
GI50 (SNB-19): > 100 µM (inactive)
GI50 (EKVX): > 100 µM (inactive)
GI50 (OVCAR-4): > 100 µM (inactive)
GI50 (SF-539): > 100 µM (inactive)
GI50 (DLD-1): > 100 µM (inactive)
GI50 (SK-MEL-5): > 100 µM (inactive)
GI50 (UACC-62): > 100 µM (inactive)
GI50 (LOX IMVI): > 100 µM (inactive)
GI50 (ACHN): > 100 µM (inactive)
GI50 (KM-20L2): > 100 µM (inactive)
GI50 (SK-OV-3): > 100 µM (inactive)
GI50 (COLO 205): > 100 µM (inactive)
GI50 (HOP-62): > 100 µM (inactive)
GI50 (SK-MEL-28): > 100 µM (inactive)
GI50 (SN12C): > 100 µM (inactive)
GI50 (SF-295): > 100 µM (inactive)
GI50 (NCI-H23): > 100 µM (inactive)
GI50 (NCI-H460): > 100 µM (inactive)
GI50 (HOP-92): > 100 µM (inactive)
GI50 (MOLT-4): > 100 µM (inactive)
GI50 (UACC-257): > 100 µM (inactive)
GI50 (CAKI-1): > 100 µM (inactive)
GI50 (RXF 393): > 100 µM (inactive)
GI50 (DMS-273): > 100 µM (inactive)
GI50 (A549): > 100 µM (inactive)
GI50 (SF-268): > 100 µM (inactive)
GI50 (U-251): > 100 µM (inactive)
GI50 (LXFL 529): > 100 µM (inactive)
GI50 (RPMI-8226): > 100 µM (inactive)
GI50 (HCT-116): > 100 µM (inactive)
GI50 (HL-60): > 100 µM (inactive)
GI50 (M14): > 100 µM (inactive)
GI50 (SR): > 100 µM (inactive)
GI50 (IGROV-1): > 100 µM (inactive)
GI50 (SW-620): > 100 µM (inactive)
GI50 (K562): > 100 µM (inactive)
GI50 (HCC 2998): > 100 µM (inactive)
GI50 (NCI-H522): > 100 µM (inactive)
GI50 (SNB-75): > 100 µM (inactive)
GI50 (OVCAR-8): > 100 µM (inactive)
GI50 (TK-10): > 100 µM (inactive)
GI50 (HCT-15): > 100 µM
GI50 (KM12): > 100 µM (inactive)
GI50 (OVCAR-5): > 100 µM (inactive)
GI50 (UO-31): > 100 µM (inactive)
GI50 (XF498): > 100 µM (inactive)
GI50 (OVCAR-3): > 100 µM (inactive)
